Tests used:
[1] = molar heat capacity at constant pressure; conditions: 101.33 kPa
[2] = Molar enthalpy of transition or fusion; conditions: Crystal
[3] = Solid-liquid equilibrium temperature; conditions: 101 kPa; Crystal; DTA

CNC[C@H](O)[C@@H](O)[C@H](O)[C@H](O)CO [(2R,3R,4R,5S)-6-(methylamino)hexane-1,2,3,4,5-pentaol]
molar heat capacity at constant pressure [J/K/mol], [1]
Conditions | Crystal | Metastable liquid
290 K | 322 | –
295 K | 327 | –
300 K | 333 | –
305 K | 338 | –
310 K | 343 | –
315 K | 348 | –
320 K | 353 | –
325 K | 358 | –
330 K | 362 | –
335 K | 367 | –
340 K | 372 | –
345 K | 377 | –
350 K | 382 | –
355 K | 387 | –
360 K | 392 | –
365 K | 396 | –
370 K | 401 | –
375 K | 406 | –
380 K | 411 | 662
385 K | – | 664
390 K | – | 666
395 K | – | 668
400 K | – | 670
405 K | – | 671
410 K | – | 672
415 K | – | 673
420 K | – | 673
425 K | – | 674
430 K | – | 676
435 K | – | 678
440 K | – | 678

Conditions | Molar enthalpy of transition or fusion [kcal/mol] | Solid-liquid equilibrium temperature [K]
[2] | 12.3 | –
[3] | – | 400.9
